Data reported in PubChem BioAssay (NCI).
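Assay format: 96-well plates, 48-hour exposure. Here, GI50 denotes the concentration required for 50% inhibition of growth. Definition used: TGI = concentration required for complete inhibition of growth.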

Columns and labels:
Test in all cases: growth of human tumour cells (NCI), 48 h
A549 NSCLC = system: A549 NSCLC
EKVX NSCLC = system: EKVX NSCLC
HCC-2998 colon = system: HCC-2998 colon
HOP-92 NSCLC = system: HOP-92 NSCLC
HS 578T breast = system: HS 578T breast
SN12C renal = system: SN12C renal
SW-620 colon = system: SW-620 colon
UO-31 renal = system: UO-31 renal

Row | SMILES | GI50 (A549 NSCLC) | TGI (A549 NSCLC) | GI50 (EKVX NSCLC) | TGI (EKVX NSCLC) | GI50 (HCC-2998 colon) | TGI (HCC-2998 colon) | GI50 (HOP-92 NSCLC) | TGI (HOP-92 NSCLC) | GI50 (HS 578T breast) | TGI (HS 578T breast) | GI50 (SN12C renal) | TGI (SN12C renal) | GI50 (SW-620 colon) | TGI (SW-620 colon) | GI50 (UO-31 renal) | TGI (UO-31 renal)
1 | CCN(CC)c1ccc(C(O)C2=CC(=O)c3ccccc3C2=O)cc1 (centres undefined) | 4.4 µM | 30.9 µM | 4.01 µM | 15.7 µM | 1.92 µM | 3.43 µM | 0.21 µM | 0.942 µM | 1.32 µM | 5.53 µM | 1.38 µM | 4.83 µM | 0.802 µM | > 100 µM | 2.12 µM | 6.25 µM
2 | N=c1ccn(O)cc1/C=C1/C(=O)Nc2ccccc21 | > 100 µM | > 100 µM | > 100 µM | > 100 µM | > 100 µM | > 100 µM | > 100 µM | > 100 µM | > 100 µM | > 100 µM | > 100 µM | > 100 µM | > 100 µM | > 100 µM | > 100 µM | > 100 µM
3 | CCOC(=O)c1cc2c(cc1Cl)SC(N(c1ccc(OC)cc1)S(=O)(=O)c1ccc(Cl)cc1)=NS2(=O)=O | 33.4 µM | > 100 µM | 41.7 µM | > 100 µM | > 100 µM | > 100 µM | 19.1 µM | 38.6 µM | 46.7 µM | > 100 µM | 31.8 µM | > 100 µM | 27.6 µM | 72.8 µM | 32 µM | > 100 µM
4 | O=C1C=CC(=Nc2cc(Br)c(O)c(Br)c2)C=C1 | 42.6 µM | > 100 µM | 52 µM | > 100 µM | 17.5 µM | 34.6 µM | 39.6 µM | > 100 µM | 32.1 µM | > 100 µM | 25.6 µM | 84.1 µM | 15.8 µM | > 100 µM | 22 µM | > 100 µM
5 | CC1CCCC(C(O)CC2CC(=O)NC(=O)C2)C1O (centres undefined) |  | > 100 µM |  | > 100 µM |  | > 100 µM |  | > 100 µM |  | > 100 µM |  | > 100 µM |  | > 100 µM |  | > 100 µM
6 | [N-]=[N+]=NCCCCCC(=O)OC(C(=O)c1ccccc1)c1cccc(OCC(=O)NCCOCCOCCNC(=O)CCCC[C@@H]2SC[C@@H]3NC(=O)N[C@@H]32)c1 (some centres undefined) | > 100 µM | > 100 µM | > 100 µM | > 100 µM | 39.6 µM | > 100 µM | 34.9 µM | > 100 µM | > 100 µM | > 100 µM | > 100 µM | > 100 µM | > 100 µM | > 100 µM | > 100 µM | > 100 µM
7 | Cc1cc(N2CCOCC2)nc(N[C@@H]2CCC[C@H](Nc3ccnc4cc(Cl)ccc34)C2)n1 | 3.31 µM | 8.56 µM | 2.86 µM | 13.2 µM | 2.05 µM | 4.55 µM | 1.44 µM | 3.08 µM | 1.84 µM | 5.14 µM | 2.48 µM | 8.68 µM | 2.07 µM | 5.36 µM | 1.29 µM | 2.63 µM
